Test results as given in patent US20230066830A1, “METHODS AND COMPOSITIONS FOR INDUCING APOPTOSIS IN CANCER STEM CELLS” (VIRGINIA COMMONWEALTH UNIVERSITY, priority 2019, published 2023).

Target: T1, PDZ1 domain of MDA-9/Syntenin (PDZ12) (Homo sapiens, UniProt O00560)
T1 construct: HSQC spectrum of 50 μM PDZ12 caused by compound at 1:1 molar ratio
T1 sequence (O00560 110-273 limits assumed): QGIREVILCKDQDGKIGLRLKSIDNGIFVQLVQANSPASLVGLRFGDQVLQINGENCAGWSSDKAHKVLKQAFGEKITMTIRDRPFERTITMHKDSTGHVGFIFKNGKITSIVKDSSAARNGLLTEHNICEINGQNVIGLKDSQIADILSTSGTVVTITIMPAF
Experiment: [15N,1H] HSQC chemical shift change ranking of compound affinity
Type: binding
Details: chemical shift changes (DPPM) of backbone amide of residue 147, 50 μM PDZ12, compound at 1:1 molar ratio
Text: *Rank ordering of compound affinity for PDZ1 were estimated based on chemical shift changes (DPPM) of the backbone amide of residue 147 on the [^15N,^1H] […] Kd values reported in parentheses were obtained by NMR titration experiments following the chemical shifts of the backbone amide of residue 147 at different ligand concentrations.

Binding affinity ranking	Structure (SMILES)
2 (2 for DPPM 0.02-0.04)	Cc1[nH]c2nc(C(=O)NCc3ccccc3)nn2c(=O)c1C [cmpd5]
3 (3 for DPPM 0.04-0.06)	Cc1cc(=O)n2nc(CCc3ccccc3)nc2[nH]1 [cmpd2]
2 (2 for DPPM 0.02-0.04)	O=C(Nc1ccc(O)c(F)c1)c1nc2[nH]c3c(c(=O)n2n1)CCC3 [112F12]
2 (2 for DPPM 0.02-0.04)	Cc1cc(=O)n2nc(NCc3ccccc3)nc2[nH]1 [cmpd1]
3 (3 for DPPM 0.04-0.06)	Cc1cc(NC(=O)c2nc3[nH]c4c(c(=O)n3n2)CCC4)c(C)cc1NC(=O)CCc1nnc(-c2ccsc2)o1 [113B11]
4 (4 for DPPM 0.06-0.08)	Cc1cc(NC(=O)c2nc3[nH]c4c(c(=O)n3n2)CCC4)c(C)cc1NC(=O)CCc1nnc(-c2ccccc2)o1 [113B7]
6 (6 for DPPM above 0.1)	Cc1cc(=O)n2nc(C(=O)Nc3cc(Cl)c(O)c(Cl)c3)nc2[nH]1 [112G1]
4 (4 for DPPM 0.06-0.08)	Cc1cc(=O)n2nc(C(=O)Nc3ccc(O)c(F)c3)nc2[nH]1 [112G2]
3 (3 for DPPM 0.04-0.06)	O=c1c2c([nH]c3nc(CCc4ccccc4)nn13)CCC2 [cmpd13]
4 (4 for DPPM 0.06-0.08)	Cc1cc(=O)n2nc(SCc3ccccc3)nc2[nH]1 [cmpd4]
1 (1 for DPPM 0.00-0.02)	O=c1c2c([nH]c3nc(NCc4cccs4)nn13)CCC2 [cmpd3]
2 (2 for DPPM 0.02-0.04)	Nc1ccc(NC(=O)c2nc3[nH]c4c(c(=O)n3n2)CCC4)cc1 [112G11]
N.B.	Cc1cc(NC(=O)c2nc3[nH]c4c(c(=O)n3n2)CCC4)c(C)cc1NC(=O)Cc1ccc(-c2ccccc2)cc1 [113B9]
1 (1 for DPPM 0.00-0.02)	O=c1[nH]c2sc3c(c2c2ncnn12)CCCC3 [cmpd6]
4 (4 for DPPM 0.06-0.08)	O=C(Nc1ccc(O)c(Cl)c1)c1nc2[nH]c3c(c(=O)n2n1)CCC3 [112F10]
5 (5 for DPPM 0.08-0.1)	Cc1c(C)c(NC(=O)c2nc3[nH]c4c(c(=O)n3n2)CCC4)c(C)c(C)c1N [113B8]
5 (5 for DPPM 0.08-0.1)	O=c1c2c([nH]c3nc(COc4ccccc4)nn13)CCC2 [cmpd11]
1 (1 for DPPM 0.00-0.02)	CCCc1cc(=O)n2nc(COc3ccccc3)nc2[nH]1 [cmpd14]
4 (4 for DPPM 0.06-0.08)	Cc1cc(=O)n2nc(C(=O)Nc3cccc(Cl)c3)nc2[nH]1 [cmpd10]
2 (2 for DPPM 0.02-0.04)	Cc1cc(=O)n2nc(C(=O)Nc3ccc(O)cc3)nc2[nH]1 [112D11]
2 (2 for DPPM 0.02-0.04)	Cc1cc(NC(=O)c2nc3[nH]c4c(c(=O)n3n2)CCC4)c(C)cc1NC(=O)CCc1nnc(-c2cccc(C(F)(F)F)c2)o1 [112H9]
1 (1 for DPPM 0.00-0.02)	Cc1cc(=O)n2nc(C(=O)Nc3ccc(N)cc3)nc2[nH]1 [112E7]
1 (1 for DPPM 0.00-0.02)	O=C(Nc1ccc(O)cc1)c1nc2[nH]c3c(c(=O)n2n1)CCC3 [112E12]
3 (3 for DPPM 0.04-0.06)	COc1cccc(NC(=O)c2nc3[nH]c(C)cc(=O)n3n2)c1 [cmpd8]
4 (4 for DPPM 0.06-0.08)	Cc1cc(=O)n2nc(COc3ccccc3)nc2[nH]1 [30A9]
3 (3 for DPPM 0.04-0.06)	Cc1cc(=O)n2nc(C(=O)Nc3ccc4c(c3)OCO4)nc2[nH]1 [cmpd9]
1 (1 for DPPM 0.00-0.02)	COc1ccc(Br)c(-c2nnc(CCC(=O)Nc3cc(C)c(NC(=O)c4nc5[nH]c6c(c(=O)n5n4)CCC6)cc3C)o2)c1 [113B12]
1 (1 for DPPM 0.00-0.02)	Cc1cc(O)n2nc(C(=O)Nc3ccc(O)cc3)nc2n1 [112F1]
2 (2 for DPPM 0.02-0.04)	Cc1cc(=O)n2nc(C(=O)Nc3ccc4c(c3)OCCO4)nc2[nH]1 [cmpd7]
6 (6 for DPPM above 0.1)	Cc1cc(=O)n2nc(C(=O)Nc3cc(Cl)c(N)cc3Cl)nc2[nH]1 [112G4]

Tested on: DU-145 and PC3-ML PCSCs
Experiment: Live/Dead chemosensitivity of PCSCs with STAT3 inhibitor
Type: cell-based, human
Details: STAT3 inhibitor with docetaxel or trichostatin-A
Protocol: Live/Dead cell imaging was performed to assess fluorescence based cell viability. Staining was performed as per the manufacturer's directions (Invitrogen™), which was followed by imaging utilizing laser confocal microscopy (Leica©). The images were analyzed by Zeiss© ZEN software. Docetaxel, STATTIC and Trichostatin-A (TSA) were obtained from Sigma. The PCSCs were serum-starved for 24 h and then treated with the drugs for 48 h at a 10 μM concentration (unless mentioned otherwise) prior to assessing the sensitivity of PCSCs to these drugs. DMSO treated cells were used as control. In vitro PDZ1i treatments occurred at 25 μM concentration. In vivo PDZ1i treatments occurred at 25 mg/kg body weight of the mice, 3 times a week for a month.

Structure (SMILES)	effect on PCSC chemosensitivity
O=[N+]([O-])c1ccc2c(c1)S(=O)(=O)C=C2 [STATTIC]	caused chemosensitivity to both docetaxel and trichostatin-A
